Experiments:
Type in all cases: in vivo
[1] = test system: Cyperus rotundus L. (purple nutsedge); assay: In-water applied herbicidal activity in transplanted paddy rice (Example 17); conditions: rice cropping systems, 35 g ae/ha, 21 DAA, may represent multiple trials
Protocol: (§1) Weed seeds or nutlets of the desired test plant species were planted in puddled soil (mud) prepared by mixing a non-sterilized mineral soil (28 percent silt, 18 percent clay, and 54 percent sand, with a pH of about 7.3 to 7.8 and an organic matter content of about 1.0 percent) and water at a ratio of 100 kilograms (kg) of soil to 19 liters (L) of water. The prepared mud was dispensed in 250 mL aliquots into 480 mL non-perforated plastic pots with a surface area of 91.6 cm^2 leaving a headspace of 3 cm in each pot. Rice seeds were planted in Sun Gro MetroMix 306 planting mixture, which typically has a pH of 6.0 to 6.8 and an organic matter content of about 30 percent, in plastic plug trays. Seedlings at the second or third leaf stage of growth were transplanted into 650 mL of mud contained in 960 mL non-perforated plastic pots with a surface area of 91.6 cm^2 four days prior to herbicide application. The paddy was created by filling the 3 cm headspace of the pots with water. When required to ensure good germination and healthy plants, a fungicide treatment and/or other chemical or physical treatment was applied. The plants were grown for 4-14 d in a greenhouse with an approximate 14-h photoperiod which was maintained at about 29° C. during the day and 26° C. during the night. Nutrients were added as Osmocote (17:6:10, Nitrogen:Phosphorus:Potassium (N:P:K)+minor nutrients) at 2 grams (g) per cup. Water was added on a regular basis to maintain the paddy flood, and supplemental lighting was provided with overhead metal halide 1000-Watt lamps as necessary. The plants were employed for testing when they reached the second or third true leaf stage.
(§2) Treatments consisted of esters of compounds 1-4, 6-33, 35-39, 41 and 42 and A-G. Compound A is methyl 4-amino-3-chloro-6-(4-chloro-3-ethoxy-2-fluorophenyl)-5-fluoropicolinate; compound B is methyl 4-amino-3-chloro-6-(4-cyclopropylphenyl)-5-fluoropicolinate; compound C is methyl 4-amino-3-chloro-6-(2,4-dichloro-3-methoxyphenyl)picolinate; compound D is methyl 6-amino-2-(4-chloro-2-fluoro-3-methoxyphenyl)-5-vinylpyrimidine-4-carboxylate; compound E is methyl 4-amino-3-chloro-6-(4-chloro-2-fluoro-3-methoxyphenyl)-5-fluoropicolinate; compound F is methyl 6-amino-2-(4-chloro-2-fluoro-3-methoxyphenyl)-5-methoxypyrimidine-4-carboxylate; and compound G is methyl 4-amino-3-chloro-6-(4-chloro-2-fluoro-3-methoxyphenyl)picolinate. Weighed amounts of technical grade compounds were placed in individual 120 mL glass vials and were dissolved in 20 mL of acetone to obtain concentrated stock solutions. […] The concentrated stock solutions obtained were diluted with 20 mL of an aqueous mixture containing 2.5% Agri-dex crop oil concentrate (v/v). The final application solutions contained 1.25% (v/v) Agri-dex crop oil concentrate. Generally, multiple concentrations were tested utilizing the same stock solution. Applications were made by injecting an appropriate amount of the application solution into the aqueous layer of the paddy. Control plants were treated in the same manner with the solvent blank.
(§3) The treated plants and control plants were placed in a greenhouse as described above and water was added as needed to maintain a paddy flood. After 3 weeks the condition of the test plants, compared with that of the untreated plants, was determined visually and scored on a scale of 0 to 100 percent where 0 corresponds to no injury and 100 corresponds to complete kill.
(§4) By applying the well-accepted probit analysis as described by J. Berkson in Journal of the American Statistical […], 48, 565 (1953) and by D. Finney in “Probit Analysis” Cambridge University Press (1952), the data gathered can be used to calculate GR50 and GR80 values, which are defined as growth reduction factors that correspond to the effective dose of herbicide required to kill or control 50 percent or 80 percent, respectively, of a target plant.

[2] = test system: Echinochloa crus-galli (L.) P.BEAUV. (barnyardgrass); assay: as above; conditions: Echinochloa crus-galli, 504 h; rice cropping systems, in-water applied (paddy), 35 g ae/ha, 21 DAA; may represent multiple trials; read-out: Visual Injury (%) ECHCG
Protocol: as §1, §2, §3, §4

Avena fatua (Oat, wild) = assay: Postemergence herbicidal activity in cereal crops (Example 14); conditions: wheat cropping systems, postemergence spray, 35 g ae/ha, 21 DAA
Protocol: (§5) Seeds of the desired test plant species were planted in Sun Gro Metro-Mix® 360 planting mixture, which typically has a pH of 6.0 to 6.8 and an organic matter content of about 30 percent, in plastic pots with a surface area of 84.6 cm^2. When required to ensure good germination and healthy plants, a fungicide treatment and/or other chemical or physical treatment was applied. The plants were grown for 7-36 d in a greenhouse with an approximate 14 h photoperiod which was maintained at about 18° C. during the day and 17° C. during the night. Nutrients and water were added on a regular basis and supplemental lighting was provided with overhead metal halide 1000-Watt lamps as necessary. The plants were employed for testing when they reached the second or third true leaf stage.
(§6) Treatments consisted of esters of compounds 33, 34, 39, 40 and 42 and B, F, G and H. Compound B is methyl 4-amino-3-chloro-6-(4-cyclopropylphenyl)-5-fluoropicolinate; compound F is methyl 6-amino-2-(4-chloro-2-fluoro-3-methoxyphenyl)-5-methoxypyrimidine-4-carboxylate; compound G is methyl 4-amino-3-chloro-6-(4-chloro-2-fluoro-3-methoxyphenyl)picolinate; and compound H is methyl 4-amino-3-chloro-6-(4-chloro-2-fluoro-3-(1-fluoroethyl)phenyl)-5-fluoropicolinate. A weighed amount, determined by the highest rate to be tested, of each test compound was placed in a 25 mL glass vial and was dissolved in 8 mL of a 97:3 v/v mixture of acetone and DMSO to obtain concentrated stock solutions. […] The concentrated stock solutions obtained were diluted with 16 mL of an aqueous mixture containing acetone, water, isopropyl alcohol, DMSO, Agri-dex crop oil concentrate, and Triton® X-77 surfactant in a 64.7:26.0:6.7:2.0:0.7:0.01 v/v ratio to obtain spray solutions containing the highest application rates. Additional application rates were obtained by serial dilution of 12 mL of the high rate solution into a solution containing 4 mL of a 97:3 v/v mixture of acetone and DMSO and 8 mL of an aqueous mixture containing acetone, water, isopropyl alcohol, DMSO, Agri-dex crop oil concentrate, and Triton® X-77 surfactant in a 48.5:39.0:10.0:1.5:1.0:0.02 v/v ratio to obtain ½×, ¼×, ⅛× and 1/16× rates of the high rate. Compound requirements are based upon a 12 mL application volume at a rate of 187 L/ha. Formulated compounds were applied to the plant material with an overhead Mandel track sprayer equipped with 8002E nozzles calibrated to deliver 187 L/ha over an application area of 0.503 m^2 at a spray height of 18 inches (43 cm) above average plant canopy height. Control plants were sprayed in the same manner with the blank.
(§7) The treated plants and control plants were placed in a greenhouse as described above and watered by sub-irrigation to prevent wash-off of the test compounds. After 20-22 d, the condition of the test plants as compared with that of the untreated plants was determined visually and scored on a scale of 0 to 100 percent where 0 corresponds to no injury and 100 corresponds to complete kill.

[3] = test system: Lolium multiflorum (Ryegrass, Italian); assay: as above; conditions: wheat cropping systems, postemergence spray, 17.5 g ae/ha, 21 DAA
Protocol: as §5, §6, §7

[4] = test system: Matricaria chamomilla (Mayweed, wild); assay: as above; conditions: wheat cropping systems, postemergence spray, 35 g ae/ha, 21 DAA
Protocol: as §5, §6, §7

[5] = test system: Setaria viridis (Foxtail, green); assay: as above; conditions: wheat cropping systems, postemergence spray, 17.5 g ae/ha, 21 DAA
Protocol: as §5, §6, §7

[6] = test system: Brachiaria platyphylla (GRISEB.) NASH (broadleaf signalgrass); assay: Postemergence foliar-applied herbicidal activity in direct seeded rice (Example 16); conditions: rice cropping systems, 8.75 g ae/ha, 21 DAA, may represent multiple trials
Excerpt: (§8) Seeds or nutlets of the desired test plant species were planted in a soil matrix prepared by mixing a loam soil (43 percent silt, 19 percent clay, and 38 percent sand, with a pH of about 8.1 and an organic matter content of about 1.5 percent) and river sand in an 80 to 20 ratio. The soil matrix was contained in plastic pots with a surface area of 139.7 cm^2. When required to ensure good germination and healthy plants, a fungicide treatment and/or other chemical or physical treatment was applied. The plants were grown for 10-17 d in a greenhouse with an approximate 14-h photoperiod which was maintained at about 29° C. during the day and 26° C. during the night. Nutrients and water were added on a regular basis and supplemental lighting was provided with overhead metal halide 1000-Watt lamps as necessary. The plants were employed for testing when they reached the second or third true leaf stage.
(§9) Treatments consisted of esters of compounds 1-4, 6-8, 10, 11, 13-16, 20-31, 35, 38, 41 and 42 and A-E. Compound A is methyl 4-amino-3-chloro-6-(4-chloro-3-ethoxy-2-fluorophenyl)-5-fluoropicolinate; compound B is methyl 4-amino-3-chloro-6-(4-cyclopropylphenyl)-5-fluoropicolinate; compound C is methyl 4-amino-3-chloro-6-(2,4-dichloro-3-methoxyphenyl)picolinate; compound D is methyl 6-amino-2-(4-chloro-2-fluoro-3-methoxyphenyl)-5-vinylpyrimidine-4-carboxylate; and compound E is methyl 4-amino-3-chloro-6-(4-chloro-2-fluoro-3-methoxyphenyl)-5-fluoropicolinate. Weighed amounts of technical grade compounds were placed in 25 mL glass vials and dissolved in a volume of 97:3 v/v acetone-DMSO to obtain 12× stock solutions. […] The concentrated stock solutions were added to the spray solutions so that the final acetone and DMSO concentrations were 16.2% and 0.5%, respectively. Spray solutions were diluted to the appropriate final concentrations with the addition of 10 mL of an aqueous mixture of 1.5% (v/v) Agri-dex crop oil concentrate. Generally, multiple concentrations of spray solutions were formulated and tested utilizing the same stock solution. The final spray solutions contained 1.25% (v/v) Agri-dex crop oil concentrate. Compound requirements are based upon a 12 mL application volume at a rate of 187 L/ha. Spray solutions were applied to the plant material with an overhead Mandel track sprayer equipped with 8002E nozzles calibrated to deliver 187 L/ha over an application area of 0.503 square meters (m^2) at a spray height of 18 inches (43 cm) above average plant canopy height. Control plants were sprayed in the same manner with the solvent blank.
as §7, with “After 3 weeks,” for “After 20-22 d,”, “test plants,” for “test plants as”, “untreated plants,” for “untreated plants”
as §4

[7] = test system: Cyperus difformis L. (small-flower flatsedge); assay: as above; conditions: post-emergence, 504 h, rice cropping systems, foliar-applied, 8.75 g ae/ha, 21 DAA, may represent multiple trials, read-out: Visual Injury (%) CYPDI
Excerpt: as §8, §9
as §7, with “After 3 weeks,” for “After 20-22 d,”, “test plants,” for “test plants as”, “untreated plants,” for “untreated plants”
as §4

[8] = test system: Echinochloa colonum (L.) LINK (junglerice); assay: as above; conditions: Echinochloa colona, post-emergence, 504 h, rice cropping systems, 8.75 g ae/ha, 21 DAA, may represent multiple trials, read-out: Visual Injury (%) ECHCO
Excerpt: as §8, §9
as §7, with “After 3 weeks,” for “After 20-22 d,”, “test plants,” for “test plants as”, “untreated plants,” for “untreated plants”
as §4

[9] = test system: Scirpus juncoides ROXB. (Japanese bulrush); assay: as above; conditions: Schoenoplectiella juncoides, post-emergence, 504 h; rice cropping systems, foliar-applied, 8.75 g ae/ha, 21 DAA; may represent multiple trials; read-out: Visual Injury (%) SCPJU
Excerpt: as §8, §9
as §7, with “After 3 weeks,” for “After 20-22 d,”, “test plants,” for “test plants as”, “untreated plants,” for “untreated plants”
as §4

[10] = test system: Scirpus juncoides ROXB. (Japanese bulrush); assay: In-water applied herbicidal activity in transplanted paddy rice (Example 17); conditions: Schoenoplectiella juncoides, 504 h; rice cropping systems, in-water applied (paddy), 35 g ae/ha, 21 DAA; may represent multiple trials; read-out: Visual Injury (%) SCPJU
Protocol: as §1, §2, §3, §4

[11] = test system: Brassica sinapis (Mustard, wild); assay: Postemergence herbicidal activity in cereal crops (Example 14); conditions: wheat cropping systems, postemergence spray, 8.75 g ae/ha, 21 DAA
Protocol: as §5, §6, §7

[12] = test system: Pennisetum glaucum (Foxtail, yellow); assay: as above; conditions: wheat cropping systems, postemergence spray, 8.75 g ae/ha, 21 DAA
Protocol: as §5, §6, §7

[13] = test system: Veronica persica (Speedwell, birdseye); assay: as above; conditions: wheat cropping systems, postemergence spray, 8.75 g ae/ha, 21 DAA
Protocol: as §5, §6, §7

Structure (SMILES) | pest or weed control at 35 g/ha [2] | Visual Injury (%) BRAPP [6] | pest or weed control at 8.75 g/ha [7] | pest or weed control at 8.75 g/ha [8] | pest or weed control at 8.75 g/ha [9] | pest or weed control at 35 g/ha [10] | Visual Injury (%) SINAR [11] | Visual Injury (%) PESGL [12] | Visual Injury (%) VERPE [13] | other results
COc1c(Cl)ccc(-c2cc(N)c(Cl)c(C(=O)OCc3ccc(Cl)cc3Cl)n2)c1F [Compound 17, 2,4-dichlorobenzyl 4-amino-3-chloro-6-(4-chloro-2-fluoro-3-methoxyphenyl)picolinate] | 98% | – | – | – | – | – | – | – | – | Visual Injury (%) CYPRO [1]: 100%
COc1c(N)nc(-c2ccc(Cl)c(OC)c2F)nc1C(=O)OCCc1ccccc1 [Compound 34] | – | – | – | – | – | – | – | – | – | Visual Injury (%) AVEFA (Avena fatua (Oat, wild)): 40%; Visual Injury (%) LOLMU [3]: 70%; Visual Injury (%) MATCH [4]: 20%; Visual Injury (%) SETVI [5]: 80%
COc1c(Cl)ccc(-c2cc(N)c(Cl)c(C(=O)OCc3ccccc3)n2)c1Cl [Compound 38, benzyl 4-amino-3-chloro-6-(2,4-dichloro-3-methoxyphenyl)-picolinate] | 99% | 90% | 100% | 90% | 100% | 100% | – | – | – | –
CC(F)c1c(Cl)ccc(-c2nc(C(=O)OCc3ccccc3)c(Cl)c(N)c2F)c1F (stereo not drawn) [Compound 40, benzyl 4-amino-3-chloro-6-(4-chloro-2-fluoro-3-(1-fluoroethyl)phenyl)-5-fluoropicolinate] | – | – | – | – | – | – | 98% | 65% | 95% | –
COC(=O)c1nc(-c2ccc(Cl)c(OC)c2Cl)cc(N)c1Cl [Compound C, methyl 4-amino-3-chloro-6-(2,4-dichloro-3-methoxyphenyl)picolinate, reference compound] | 36% | 74% | 96% | 84% | 90% | 83% | – | – | – | –
COC(=O)c1nc(-c2ccc(Cl)c(C(C)F)c2F)c(F)c(N)c1Cl (stereo not drawn) [Compound H, methyl 4-amino-3-chloro-6-(4-chloro-2-fluoro-3-(1-fluoroethyl)phenyl)-5-fluoropicolinate, reference compound] | – | – | – | – | – | – | 87% | 0% | 80% | –

Reference: US9169217B2, “Arylalkyl esters of 4-amino-6-(substituted phenyl)-picolinates and 6-amino-2-(substituted phenyl)-pyrimidinecarboxylates and their use as selective herbicides for crops” (Dow AgroSciences LLC, priority 2011, dated 2015)
